Source: ChEMBL document CHEMBL4177616, “Potent anti-melanogenic activity and favorable toxicity profile of selected 4-phenyl hydroxycoumarins in the zebrafish model and the computational molecular modeling studies” (Bioorg Med Chem, 2017)
The source made the active and inactive calls. No cut-off for these calls is given here.

Experiments:
Danio rerio [1] = organism: Danio rerio; experiment: Toxicity in wild type zebrafish embryos assessed as eyes at 50 ug/ml treated for 96 hrs post fertilization starting from 6 hrs post fertilization by inverted microscopic analysis relative to control; assay type: organism-based; settings: in vivo
Danio rerio [2] = organism: Danio rerio; experiment: Toxicity in wild type zebrafish embryos assessed as skeletal deformities at 50 ug/ml treated for 96 hrs post fertilization starting from 6 hrs post fertilization by inverted microscopic analysis relative to control; assay type: organism-based; settings: in vivo
Melanocyte [3] = experiment: Anti-melanogenic activity in wild type zebrafish embryo melanocytes assessed as decrease in pigmentation at 25 ug/ml treated for 72 hrs post fertilization starting from 6 to 24 hrs post fertilization; assay type: functional, cell-based; settings: Danio rerio
Danio rerio [4] = organism: Danio rerio; experiment: Toxicity in wild type zebrafish embryos assessed as normal embryo at 15 ug/ml treated for 96 hrs post fertilization starting from 6 hrs post fertilization by inverted microscopic analysis relative to control; assay type: organism-based; settings: in vivo
Danio rerio [5] = organism: Danio rerio; experiment: Toxicity in wild type zebrafish embryos assessed as eyes at 15 ug/ml treated for 96 hrs post fertilization starting from 6 hrs post fertilization by inverted microscopic analysis relative to control; assay type: organism-based; settings: in vivo
Tyrosinase = target: T1, Tyrosinase (Danio rerio, UniProt A0A8M1PAD4); experiment: Inhibition of zebrafish embryo tyrosinase assessed as residual activity after 48 hrs
T1 sequence (A0A8M1PAD4 whole entry): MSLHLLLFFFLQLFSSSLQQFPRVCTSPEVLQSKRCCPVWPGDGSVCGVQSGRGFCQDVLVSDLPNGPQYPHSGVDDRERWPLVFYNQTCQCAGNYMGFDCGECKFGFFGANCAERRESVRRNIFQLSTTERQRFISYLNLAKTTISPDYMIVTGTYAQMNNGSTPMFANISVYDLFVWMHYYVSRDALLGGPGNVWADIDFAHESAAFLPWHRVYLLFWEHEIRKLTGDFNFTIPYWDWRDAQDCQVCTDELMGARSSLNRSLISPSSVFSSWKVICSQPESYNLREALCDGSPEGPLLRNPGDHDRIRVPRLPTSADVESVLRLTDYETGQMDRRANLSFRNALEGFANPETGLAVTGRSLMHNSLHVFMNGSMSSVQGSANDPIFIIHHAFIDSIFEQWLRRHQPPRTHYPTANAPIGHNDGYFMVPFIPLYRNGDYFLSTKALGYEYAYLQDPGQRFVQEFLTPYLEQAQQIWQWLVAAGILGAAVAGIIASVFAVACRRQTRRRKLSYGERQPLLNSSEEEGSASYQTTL

Neutrophil [6] = experiment: Anti-melanogenic activity in mpx:GFP transgenic zebrafish 24 hrs post fertilization embryo neutrophils assessed as decrease in pigmentation at 25 ug/ml; assay type: functional, cell-based; settings: Danio rerio
Neutrophil [7] = experiment: Cytotoxicity against […] transgenic zebrafish 24 hrs post fertilization embryo neutrophils assessed as reduction in neutrophil at 25 ug/ml treated for 72 hrs post fertilization starting from 6 to 24 hrs post fertilization; assay type: cell-based, Danio rerio
Danio rerio [8] = experiment: Toxicity in wild type zebrafish embryos assessed as yolk edema at 50 ug/ml treated for 96 hrs post fertilization starting from 6 hrs post fertilization by inverted microscopic analysis relative to control; assay type: organism-based; settings: in vivo
Danio rerio [9] = experiment: Toxicity in wild type zebrafish embryos assessed as pericardial edema at 50 ug/ml treated for 96 hrs post fertilization starting from 6 hrs post fertilization by inverted microscopic analysis relative to control; assay type: organism-based; settings: in vivo
Tyrosinase (Danio rerio) [10] = target: T2, Tyrosinase (Danio rerio) (UniProt A0A8M1PAD4); experiment: Inhibition of zebrafish embryo tyrosinase assessed as melanin production at 5 ug/ml after 48 hrs relative to control; values are per cent of control
T2 sequence (whole entry): T1 sequence (A0A8M1PAD4 whole entry)

Tyrosinase (Danio rerio) [11] = target: T2, Tyrosinase (Danio rerio); experiment: Potency index, ratio of kojic acid IC50 to compound IC50 for zebrafish embryo tyrosinase assessed as melanin production
Danio rerio [12] = organism: Danio rerio; experiment: Toxicity in wild type zebrafish embryos assessed as skeletal deformities at 15 ug/ml treated for 96 hrs post fertilization starting from 6 hrs post fertilization by inverted microscopic analysis relative to control; assay type: organism-based; settings: in vivo
Danio rerio [13] = organism: Danio rerio; experiment: Toxicity in wild type zebrafish embryos assessed as unhatched embryo at 15 ug/ml treated for 96 hrs post fertilization starting from 6 hrs post fertilization by inverted microscopic analysis relative to control; assay type: organism-based; settings: in vivo
Tyrosinase (Danio rerio) [14] = target: T2, Tyrosinase (Danio rerio); experiment: Inhibition of zebrafish embryo tyrosinase assessed as melanin production at 20 ug/ml after 48 hrs relative to control; values are per cent of control
[15] = Toxicity in wild type zebrafish embryos assessed as dead embryo at 15 ug/ml treated for 96 hrs post fertilization starting from 6 hrs post fertilization by inverted microscopic analysis relative to control; assay type: organism-based, Danio rerio; settings: in vivo, read-out: Activity
Danio rerio [16] = organism: Danio rerio; experiment: Toxicity in wild type zebrafish embryos assessed as unhatched embryo at 50 ug/ml treated for 96 hrs post fertilization starting from 6 hrs post fertilization by inverted microscopic analysis relative to control; assay type: organism-based; settings: in vivo
Danio rerio [17] = organism: Danio rerio; experiment: Toxicity in wild type zebrafish embryos assessed as head malformation at 15 ug/ml treated for 96 hrs post fertilization starting from 6 hrs post fertilization by inverted microscopic analysis relative to control; assay type: organism-based; settings: in vivo
Danio rerio [18] = experiment: Toxicity in wild type zebrafish embryos assessed as pericardial edema at 15 ug/ml treated for 96 hrs post fertilization starting from 6 hrs post fertilization by inverted microscopic analysis relative to control; assay type: organism-based; settings: in vivo
Danio rerio [19] = experiment: Toxicity in wild type zebrafish embryos assessed as yolk edema at 15 ug/ml treated for 96 hrs post fertilization starting from 6 hrs post fertilization by inverted microscopic analysis relative to control; assay type: organism-based; settings: in vivo
Tyrosinase (Danio rerio) [20] = target: T2, Tyrosinase (Danio rerio); experiment: Inhibition of zebrafish embryo tyrosinase assessed as residual activity at 10 ug/ml after 48 hrs relative to control
Danio rerio [21] = organism: Danio rerio; experiment: Toxicity in wild type zebrafish embryos assessed as head malformation at 50 ug/ml treated for 96 hrs post fertilization starting from 6 hrs post fertilization by inverted microscopic analysis relative to control; assay type: organism-based; settings: in vivo
Danio rerio [22] = organism: Danio rerio; experiment: Toxicity in wild type zebrafish embryos assessed as skeletal deformities at 20 ug/ml treated for 96 hrs post fertilization starting from 6 hrs post fertilization by inverted microscopic analysis relative to control; assay type: organism-based; settings: in vivo
Danio rerio [23] = organism: Danio rerio; experiment: Toxicity in wild type zebrafish embryos assessed as blood circulation at 50 ug/ml treated for 96 hrs post fertilization starting from 6 hrs post fertilization by inverted microscopic analysis relative to control; assay type: organism-based; settings: in vivo
Danio rerio [24] = organism: Danio rerio; experiment: Toxicity in wild type zebrafish embryos assessed as growth retardation at 15 ug/ml treated for 96 hrs post fertilization starting from 6 hrs post fertilization by inverted microscopic analysis relative to control; assay type: organism-based; settings: in vivo
Melanocyte [25] = experiment: Cytotoxicity against wild type zebrafish embryo melanocytes assessed as number of melanocyte at 25 ug/ml treated for 72 hrs post fertilization starting from 6 to 24 hrs post fertilization; assay type: cell-based, Danio rerio
Tyrosinase (Danio rerio) [26] = target: T2, Tyrosinase (Danio rerio); experiment: Inhibition of zebrafish embryo tyrosinase assessed as residual activity at 5 ug/ml after 48 hrs relative to control
Danio rerio [27] = organism: Danio rerio; experiment: Toxicity in wild type zebrafish embryos assessed as growth retardation at 50 ug/ml treated for 96 hrs post fertilization starting from 6 hrs post fertilization by inverted microscopic analysis relative to control; assay type: organism-based; settings: in vivo
Tyrosinase (Danio rerio) [28] = target: T2, Tyrosinase (Danio rerio); experiment: Inhibition of zebrafish embryo tyrosinase assessed as melanin production at 10 ug/ml after 48 hrs relative to control; values are per cent of control
Danio rerio [29] = organism: Danio rerio; experiment: Toxicity in wild type zebrafish embryos assessed as notochord at 15 ug/ml treated for 96 hrs post fertilization starting from 6 hrs post fertilization by inverted microscopic analysis relative to control; assay type: organism-based; settings: in vivo
Danio rerio [30] = organism: Danio rerio; experiment: Toxicity in wild type zebrafish embryos assessed as otoliths at 50 ug/ml treated for 96 hrs post fertilization starting from 6 hrs post fertilization by inverted microscopic analysis relative to control; assay type: organism-based; settings: in vivo

Row | Compound | Activity (Danio rerio [1]) | Activity (Danio rerio [2]) | Activity (Melanocyte [3]) | Activity (Danio rerio [4]) | Activity (Danio rerio [5]) | IC50 (Tyrosinase) | Activity (Neutrophil [6]) | Activity (Neutrophil [7]) | Activity (Danio rerio [8]) | Activity (Danio rerio [9]) | melanin content % of control (Tyrosinase (Danio rerio) [10]) | Ratio IC50 (Tyrosinase (Danio rerio) [11]) | Activity (Danio rerio [12]) | Activity (Danio rerio [13]) | melanin content % of control (Tyrosinase (Danio rerio) [14]) | mortality at 15 ug/ml [15] | Activity (Danio rerio [16]) | Activity (Danio rerio [17]) | Activity (Danio rerio [18]) | Activity (Danio rerio [19]) | further results
1 | O=c1cc(-c2ccccc2)c2c(O)cc(O)cc2o1 | 0% | 25% | Active | 100% | 0% | 90.9 µM | Active | Non-Toxic | 0% | 5% | 63% | 147 | 0% | 0% | 37% | 0% | 0% | 0% | 0% | 0% | Activity (Tyrosinase (Danio rerio) [20]): 82%; Activity (Danio rerio [21]): 0%; Activity (Danio rerio [22]): 0%; Activity (Danio rerio [23]): 0%; Activity (Danio rerio [24]): 0%; Activity (Melanocyte [25]): Non-Toxic; Activity (Tyrosinase (Danio rerio) [26]): 95%; Activity (Danio rerio [27]): 0%; melanin content % of control (Tyrosinase (Danio rerio) [28]): 48%; Activity (Danio rerio [29]): 0%; Activity (Danio rerio [30]): 0%
2 | O=c1cc(-c2ccccc2)c2ccc(O)cc2o1 | 0% | 0% | Active | 100% | 0% | 205 µM | Active | Non-Toxic | 0% | 0% | 93% | 62 | 0% | 0% | 61% | 0% | 0% | 0% | 0% | 0% | Activity (Tyrosinase (Danio rerio) [20]): 97%; Activity (Danio rerio [21]): 0%; Activity (Danio rerio [22]): 0%; Activity (Danio rerio [23]): 0%; Activity (Danio rerio [24]): 0%; Activity (Melanocyte [25]): Non-Toxic; Activity (Tyrosinase (Danio rerio) [26]): 99%; Activity (Danio rerio [27]): 0%; melanin content % of control (Tyrosinase (Danio rerio) [28]): 91%; Activity (Danio rerio [29]): 0%; Activity (Danio rerio [30]): 0%
